ChEMBL document CHEMBL1201862, “PubChem BioAssay data set” (2004)
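These data come from cells grown in 96-well plates and exposed to compound for 48 hours at five concentrations. Here, GI50 denotes the concentration required for 50% inhibition of growth.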 Calls of active or inactive are those of the source. Rule as the data show it: active = GI50 up to about 1.1 µM and inactive = higher.

Tests used:
Experiment in all cases: inhibition of tumour cell growth, NCI panel, 48 h
SK-MEL-5 = tested on: SK-MEL-5
SR = tested on: SR
A549 = tested on: A549
MDA-MB-435 = tested on: MDA-MB-435
OVCAR-8 = tested on: OVCAR-8
ACHN = tested on: ACHN
HT-29 = tested on: HT-29
NCI/ADR-RES = tested on: NCI/ADR-RES
CAKI-1 = tested on: CAKI-1
BT-549 = tested on: BT-549
SK-MEL-28 = tested on: SK-MEL-28
A498 = tested on: A498
HOP-62 = tested on: HOP-62
SNB-19 = tested on: SNB-19
UACC-62 = tested on: UACC-62
MOLT-4 = tested on: MOLT-4
KM12 = tested on: KM12
RPMI-8226 = tested on: RPMI-8226
UO-31 = tested on: UO-31
K562 = tested on: K562
786-0 = tested on: 786-0
CCRF-CEM = tested on: CCRF-CEM
SF-539 = tested on: SF-539
UACC-257 = tested on: UACC-257
SF-268 = tested on: SF-268
HCT-15 = tested on: HCT-15
HCT-116 = tested on: HCT-116
U-251 = tested on: U-251
Hs-578T = tested on: Hs-578T
MDA-N = tested on: MDA-N
SNB-75 = tested on: SNB-75
Malme-3M = tested on: Malme-3M
COLO 205 = tested on: COLO 205
DU-145 = tested on: DU-145
NCI-H522 = tested on: NCI-H522
M14 = tested on: M14
HOP-92 = tested on: HOP-92
NCI-H23 = tested on: NCI-H23
OVCAR-3 = tested on: OVCAR-3
PC-3 = tested on: PC-3
SK-MEL-2 = tested on: SK-MEL-2
MDA-MB-231 = tested on: MDA-MB-231
SF-295 = tested on: SF-295
TK-10 = tested on: TK-10
SW-620 = tested on: SW-620
EKVX = tested on: EKVX
LOX IMVI = tested on: LOX IMVI
SN12C = tested on: SN12C
MCF7 = tested on: MCF7
OVCAR-5 = tested on: OVCAR-5
SK-OV-3 = tested on: SK-OV-3
OVCAR-4 = tested on: OVCAR-4
IGROV-1 = tested on: IGROV-1
NCI-H460 = tested on: NCI-H460
HCC 2998 = tested on: HCC 2998
T47D = tested on: T47D
NCI-H226 = tested on: NCI-H226
RXF 393 = tested on: RXF 393
HL-60 = tested on: HL-60

Measured: GI50

Nc1ccc(-c2nc3ccc(F)cc3s2)cc1
inactive: SK-MEL-5 15.3 µM | SR 77.3 µM | A549 28.1 µM | MDA-MB-435 25.9 µM | OVCAR-8 48.3 µM | ACHN 21 µM | HT-29 38.2 µM | NCI/ADR-RES 33.9 µM | CAKI-1 31.1 µM | BT-549 39.4 µM | SK-MEL-28 60.1 µM | A498 30 µM | HOP-62 29.5 µM | SNB-19 32.8 µM | UACC-62 16.6 µM | MOLT-4 > 100 µM | KM12 25.2 µM | RPMI-8226 18.6 µM | UO-31 26 µM | K562 43.7 µM | 786-0 35.4 µM | CCRF-CEM 19.1 µM | SF-539 36.4 µM | UACC-257 43.2 µM | SF-268 37.3 µM | HCT-116 36.6 µM | U-251 31.4 µM | Hs-578T 20.2 µM | MDA-N 39.4 µM | SNB-75 31.5 µM | Malme-3M 51.8 µM | COLO 205 17.9 µM | DU-145 23.7 µM | NCI-H522 30.8 µM | M14 36.4 µM | HOP-92 29.4 µM | NCI-H23 31.3 µM | OVCAR-3 22.5 µM | PC-3 17.2 µM | SK-MEL-2 19.8 µM | MDA-MB-231 25.3 µM | SF-295 25.5 µM | TK-10 26.6 µM | SW-620 51.9 µM | EKVX 32 µM | LOX IMVI 28.7 µM | SN12C 33 µM
35.8 µM: HCT-15

COc1ccc2c(-c3ccc(OCCN(C)C)cc3)c(Oc3ccccc3)c(=O)oc2c1
3.48 µM: HCT-15
inactive: SK-MEL-5 2.37 µM | SR 2.07 µM | A549 3.37 µM | MDA-MB-435 2.48 µM | OVCAR-8 10.5 µM | ACHN 10.2 µM | HT-29 7.59 µM | NCI/ADR-RES 4.5 µM | CAKI-1 8.67 µM | BT-549 11 µM | SK-MEL-28 2.31 µM | A498 13.4 µM | HOP-62 13 µM | SNB-19 5.86 µM | MCF7 3.57 µM | UACC-62 2.78 µM | MOLT-4 2.71 µM | OVCAR-5 14.2 µM | KM12 4.78 µM | RPMI-8226 4.25 µM | SK-OV-3 6.27 µM | UO-31 4 µM | K562 3.07 µM | 786-0 2.87 µM | CCRF-CEM 3.54 µM | SF-539 3.91 µM | UACC-257 2.09 µM | SF-268 6.18 µM | OVCAR-4 16.9 µM | HCT-116 2.58 µM | U-251 2.82 µM | Hs-578T 6.18 µM | SNB-75 6.95 µM | Malme-3M 3.12 µM | COLO 205 3.01 µM | IGROV-1 5.42 µM | DU-145 12.2 µM | NCI-H522 3.48 µM | M14 1.64 µM | NCI-H460 7.64 µM | HCC 2998 3.5 µM | HOP-92 9.53 µM | NCI-H23 12 µM | OVCAR-3 7.64 µM | PC-3 6.12 µM | SK-MEL-2 5.33 µM | MDA-MB-231 3.15 µM | T47D 7.85 µM | SF-295 3.17 µM | TK-10 9.79 µM | SW-620 4.2 µM | NCI-H226 16.1 µM | EKVX 11.1 µM | RXF 393 4.76 µM | LOX IMVI 3.74 µM | SN12C 6.71 µM

COc1cccc(C2c3cc4c(cc3OC(C)(N3CCCC3)C2C)OCO4)c1 (configuration not stated)
5.35 µM: HCT-15
inactive: SK-MEL-5 3.92 µM | SR 9.48 µM | A549 7.55 µM | MDA-MB-435 4.19 µM | OVCAR-8 20.9 µM | ACHN 17.6 µM | HT-29 3.77 µM | NCI/ADR-RES 6.9 µM | CAKI-1 17.1 µM | SK-MEL-28 20.3 µM | A498 14 µM | HOP-62 6.62 µM | SNB-19 21.9 µM | MCF7 9.51 µM | HL-60 23.1 µM | UACC-62 5.38 µM | MOLT-4 51.3 µM | OVCAR-5 7.73 µM | KM12 4 µM | SK-OV-3 11.9 µM | UO-31 13.1 µM | K562 58.3 µM | 786-0 26.1 µM | CCRF-CEM 32.7 µM | SF-539 13.9 µM | UACC-257 18.2 µM | SF-268 27.4 µM | OVCAR-4 14.3 µM | HCT-116 7.62 µM | U-251 7.59 µM | Hs-578T 3.07 µM | MDA-N 2.13 µM | SNB-75 3.18 µM | Malme-3M 11.6 µM | COLO 205 11.4 µM | IGROV-1 8.38 µM | DU-145 20.7 µM | NCI-H522 2.37 µM | M14 4.12 µM | NCI-H460 9.62 µM | HCC 2998 13.1 µM | HOP-92 10.2 µM | NCI-H23 20.5 µM | OVCAR-3 4.89 µM | PC-3 16.3 µM | SK-MEL-2 2.45 µM | MDA-MB-231 7.78 µM | T47D 11.2 µM | SF-295 8.83 µM | TK-10 10.9 µM | SW-620 6.55 µM | NCI-H226 6.4 µM | EKVX 24.6 µM | RXF 393 14 µM | LOX IMVI 10.6 µM | SN12C 17.2 µM
